Laboratory results taken from BigSolDB 2.1.

Clc1ccc(SSc2ccc(Cl)cc2)cc1
Details | solubility (mole fraction)
in acetone, 302.95 K | 0.102
in acetone, 308.05 K | 0.145
in acetone, 313.25 K | 0.208
in chloroform, 303.15 K | 0.122
in chloroform, 307.95 K | 0.174
in chloroform, 312.55 K | 0.243
in ethanol, 304.35 K | 0.000264
in ethanol, 307.45 K | 0.000783
in ethanol, 312.35 K | 0.00305
in ethanol, 317.35 K | 0.00786
in ethyl acetate, 303.95 K | 0.0201
in ethyl acetate, 307.9 K | 0.038
in ethyl acetate, 312.35 K | 0.0667
in ethyl acetate, 319.05 K | 0.117
in methanol, 303.15 K | 0.00014
in methanol, 307.65 K | 0.00061
in methanol, 314.15 K | 0.00259
in methanol, 318.95 K | 0.00552
in toluene, 303.2 K | 0.0219
in toluene, 307.85 K | 0.0446
in toluene, 314.05 K | 0.0864
in toluene, 317.55 K | 0.114
